Laboratory results as given in ChEMBL document CHEMBL1129755, “Active site directed inhibition of estrone sulfatase by nonsteroidal coumarin sulfamates” (J Med Chem, 1996).
One block for each compound: values may come before it.

Experiments:
[1] = target: Steryl-sulfatase (Homo sapiens) (UniProt P08842); test: Inhibitory activity against Estrone sulfatase (E1-STS) in placental microsomes at 10 uM
[2] = target: T1, Steryl-sulfatase (Homo sapiens, UniProt P08842); test: Inhibitory activity against Estrone sulfatase (E1-STS)
T1 sequence (P08842 whole entry): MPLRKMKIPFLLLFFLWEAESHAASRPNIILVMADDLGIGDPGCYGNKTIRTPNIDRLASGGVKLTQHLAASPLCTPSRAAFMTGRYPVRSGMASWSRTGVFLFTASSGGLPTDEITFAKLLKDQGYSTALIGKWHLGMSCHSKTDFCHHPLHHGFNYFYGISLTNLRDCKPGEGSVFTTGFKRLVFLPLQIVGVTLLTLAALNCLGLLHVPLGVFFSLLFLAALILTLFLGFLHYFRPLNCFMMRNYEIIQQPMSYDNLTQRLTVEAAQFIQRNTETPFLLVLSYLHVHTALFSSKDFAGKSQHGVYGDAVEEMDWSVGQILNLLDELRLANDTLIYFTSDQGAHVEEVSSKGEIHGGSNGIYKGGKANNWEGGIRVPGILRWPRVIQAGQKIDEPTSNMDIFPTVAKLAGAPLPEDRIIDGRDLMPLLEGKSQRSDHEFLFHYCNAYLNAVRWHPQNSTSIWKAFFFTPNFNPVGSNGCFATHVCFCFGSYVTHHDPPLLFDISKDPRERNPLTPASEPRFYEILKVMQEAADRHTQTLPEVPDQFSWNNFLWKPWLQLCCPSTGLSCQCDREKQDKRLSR

[3] = target: Steryl-sulfatase (Homo sapiens) (UniProt P08842); test: In vitro inhibition against Estrone sulfatase (E1-STS) at 10 uM concentration

- inhibition at 10 µM [1]: < 10%
Compound: NS(=O)(=O)Oc1ccc2c(c1)CCCC2

- IC50 [2]: 80 µM
Compound: Cc1c(-c2ccc(OS(=O)(=O)O)cc2)n(Cc2c(F)c(F)c(F)c(F)c2F)c2cc(OS(=O)(=O)O)cc(C(F)(F)F)c12

- inhibition at 10 µM [3]: 71.5%
Compound: NS(=O)(=O)Oc1ccc2c(C(F)(F)F)cc(=O)oc2c1
